Source: patent publication US10479997B2, “Compositions and methods for diagnosis and treatment of prostate cancer” (NOVARTIS AG, priority 2014, dated 2019)

How the values were obtained:
PRMT5 [1] = conditions: shRNAs disclosed in U.S. Patent Application No. 62/049,004; cited from earlier work
PRMT5 [2] = target: PRMT5 (Homo sapiens, UniProt O14744); conditions: substrate E2-F-1; cited from earlier work
[3] = target: T1, PRMT5/MEP50 enzyme complex (Homo sapiens, UniProt O14744); assay: in vitro biochemical assay: PRMT5/MEP50 enzyme complex with SAM and purified AR LBD (with or without ERG ETS domain); conditions: AR LBD/PRMT5 and AR LBD/PRMT5/ETS reactions
T1 construct: purchased
Procedure: To test whether ERG is a substrate of PRMT5, we used 22Rv1 cells to express and immunoprecipitate ERG in the presence and absence of PRMT5. Using a recently generated antibody specific for symmetric dimethyl arginine modification, we verified ERG arginine methylation levels and only observed a faint band which was not altered following PRMT5 knockdown (data not shown). To confirm these findings, we performed in vitro biochemical assays in which we incubated increasing amounts of commercial PRMT5/MEP50 enzyme complex with the methyl donor S-Adenosyl-Methionine (SAM) and either the pointed (PNT) domain or ETS domain of ERG as possible substrates of PRMT5. As a measure of PRMT5 catalytic activity and usage of the methyl donor SAM for substrate methylation, we evaluated and quantified by mass spectrometry the amount of S-Adenosyl-Homocysteine (SAH) produced (data not shown). […] To investigate whether the ligand binding domain (LBD) of AR is a direct substrate of PRMT5, we performed a series of in vitro biochemical assays in which we incubated the PRMT5/MEP50 enzyme complex with the methyl donor S-Adenosyl-Methionine (SAM) and purified AR LBD. […]

T1 sequence (O14744 whole entry, the tested form may be a part): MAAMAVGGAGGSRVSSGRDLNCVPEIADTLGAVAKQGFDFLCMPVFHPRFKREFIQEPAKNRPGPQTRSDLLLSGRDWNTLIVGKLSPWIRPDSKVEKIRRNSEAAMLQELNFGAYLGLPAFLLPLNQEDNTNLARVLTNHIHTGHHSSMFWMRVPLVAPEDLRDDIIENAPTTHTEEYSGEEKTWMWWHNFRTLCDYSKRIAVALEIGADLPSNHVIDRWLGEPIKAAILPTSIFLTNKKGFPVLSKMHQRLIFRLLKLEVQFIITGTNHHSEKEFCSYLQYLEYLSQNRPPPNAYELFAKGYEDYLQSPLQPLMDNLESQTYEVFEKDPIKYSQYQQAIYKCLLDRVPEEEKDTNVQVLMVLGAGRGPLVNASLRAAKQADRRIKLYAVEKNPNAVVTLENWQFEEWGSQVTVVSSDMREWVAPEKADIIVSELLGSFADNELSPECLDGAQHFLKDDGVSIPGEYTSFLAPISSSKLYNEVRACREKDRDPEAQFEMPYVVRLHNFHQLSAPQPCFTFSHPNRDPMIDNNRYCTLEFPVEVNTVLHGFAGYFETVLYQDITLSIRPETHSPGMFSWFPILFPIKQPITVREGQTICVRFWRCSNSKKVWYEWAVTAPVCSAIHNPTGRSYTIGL
T1 sequence (Q9BQA1 whole entry partner, the tested form may be a part): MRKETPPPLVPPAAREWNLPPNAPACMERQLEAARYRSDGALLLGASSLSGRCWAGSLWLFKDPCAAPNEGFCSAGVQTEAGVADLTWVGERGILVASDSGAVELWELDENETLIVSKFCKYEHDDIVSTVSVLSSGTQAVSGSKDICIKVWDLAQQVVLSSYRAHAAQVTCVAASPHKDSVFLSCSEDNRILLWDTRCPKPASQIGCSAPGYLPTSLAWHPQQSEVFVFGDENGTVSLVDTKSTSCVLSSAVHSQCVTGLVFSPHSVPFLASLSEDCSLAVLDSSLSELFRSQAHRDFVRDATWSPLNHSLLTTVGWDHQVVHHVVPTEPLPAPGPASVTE
Sequence of PRMT5 (Homo sapiens, UniProt O14744) (O14744 whole entry, the tested form may be a part): as the sequence (O14744 whole entry, the tested form may be a part) above
Sequence of PRMT5 (Homo sapiens, UniProt O14744) (Q9BQA1 whole entry partner, the tested form may be a part): as the sequence (Q9BQA1 whole entry partner, the tested form may be a part) above

Molecule	effectiveness of shRNA to PRMT5 (PRMT5 [1])	other results
sh4736: PRMT5 shRNA, target sequence GCGGATAAAGCTGTATGCTGT (SEQ ID NO: 11) (the letters are possibly those of the target site)	most effective	
sh4738: PRMT5 shRNA, target sequence GCCATCCCAACAGAGATCCTA (SEQ ID NO: 8) (the letters are possibly those of the target site)	also effective	
Nc1ncnc2c1ncn2[C@@H]1O[C@H](C[C@@H](N)CC[C@H](N)C(=O)O)C(O)C1O (stereo in doubt) [Sinefungin, 5′-Deoxy-5′-(1,4-diamino-4-carboxybutyl)adenosine]		inhibition of PRMT5 activity (PRMT5 [2]): inhibits PRMT5 activity
sh4737: PRMT5 shRNA, target sequence GCCAAGTGACCGTAGTCTCAT (SEQ ID NO: 15)	most effective	
O=C(Nc1ccc2c(O)cc(S(=O)(=O)O)cc2c1)Nc1ccc2c(O)cc(S(=O)(=O)O)cc2c1 [AMI-1]		AR mono-methylation levels ([3]; arginine mono-methyl antibody): completely blocked; SAH production ([3]; measured by mass spectrometry): completely blocked
